Measured values reported in US20070203153A1, “Compositions and methods for treating thrombocytopenia” (Astellas Pharma Inc., priority 2005, published 2007).

Assays:
[1] = system: human cord blood CD34+ cells; experiment: megakaryocyte colony formation of human cord blood CD34+ cells; type: cell-based; settings: read-out: induction of megakaryocyte colony formation, EC50
[2] = system: G-CSF-mobilized human peripheral blood CD34+ cells; experiment: degree of polyploidy of G-CSF-mobilized human peripheral blood CD34+ cells after 12 days incubation; type: cell-based; settings: compared with rhTPO-treated cells
human c-Mpl = biological target: T1, human c-Mpl (Homo sapiens, UniProt P40238); experiment: effect on TPO binding to human c-Mpl using human platelets; settings: concentrations up to 100 microM
T1 construct: endogenous in cells; host or cells: human platelets
T1 sequence (P40238 26-635): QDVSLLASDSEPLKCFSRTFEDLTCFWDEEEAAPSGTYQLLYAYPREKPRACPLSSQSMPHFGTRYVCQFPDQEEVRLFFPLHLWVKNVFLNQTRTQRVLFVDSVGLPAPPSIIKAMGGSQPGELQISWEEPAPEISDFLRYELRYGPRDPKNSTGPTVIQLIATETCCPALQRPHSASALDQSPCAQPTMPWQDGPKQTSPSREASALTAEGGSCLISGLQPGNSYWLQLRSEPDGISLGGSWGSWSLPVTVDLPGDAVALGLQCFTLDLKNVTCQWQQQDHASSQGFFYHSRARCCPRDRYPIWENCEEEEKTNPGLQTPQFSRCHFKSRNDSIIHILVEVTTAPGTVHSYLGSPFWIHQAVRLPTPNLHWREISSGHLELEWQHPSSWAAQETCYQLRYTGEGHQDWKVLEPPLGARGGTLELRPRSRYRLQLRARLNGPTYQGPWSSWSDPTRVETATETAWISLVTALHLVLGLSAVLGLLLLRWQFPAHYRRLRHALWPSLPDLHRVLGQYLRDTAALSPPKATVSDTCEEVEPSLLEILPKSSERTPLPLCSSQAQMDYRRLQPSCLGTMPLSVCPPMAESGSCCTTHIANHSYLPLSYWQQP

human platelets [3] = experiment: activation of signaling pathways in platelets (anti-phospho-STAT5 immunoblot), human; type: cell-based
[4] = system: G-CSF-mobilized human peripheral blood CD34+ cells; experiment: differentiation of human CD34+ cells into megakaryocytes, serum-free liquid culture, flow cytometry; type: cell-based; settings: day 14
Experimental: G-SCF-mobilized human peripheral blood CD34+ cells were cultured with a combination of FORMULA X and TPO, FORMULA X, or rhTPO in a serum-free liquid culture system. The numbers of CD34+CD41− cells (hematopoietic progenitor cells), CD34+CD41+ cells (megakaryocytic progenitor cells), and CD34−CD41+ cells (megakaryocytes) were measured using flow cytometry.
For purposes of this study, the number of megakaryocytes (CD34−CD41+ cells) depicted in FIG. 1 were counted using flow cytometry. The data represents the mean±SE of 5 independent experiments. *: p<0.05, ***p<0.001 compared with 3 nM TPO using Dunnett's test.
The number of hematopoietic progenitor cells ([…]) and megakaryocytic progenitor cells (CD34+CD41+ cells: b) depicted in FIGS. 2 and 3, respectively, were counted using flow cytometry, then compared with 3 nM TPO using Dunnett's test.
On the indicated days, the numbers of hematopoietic progenitor cells ([…]), megakaryocytic progenitor cells (CD34+CD41+ cells: b), and megakaryocytes (CD34−CD41+ cells: c) depicted in FIGS. 4, 5, and 6 were counted using flow cytometry on indicated days. The data represent the mean±SE of 5 independent experiments. *: p<0.05, **p<0.01, ***p<0.001 compared with 3 nM TPO using Dunnett's tests.

human platelets [5] = experiment: platelet-increasing effect in human platelet-producing NOD/SCID mice; type: in vivo; settings: for increase in the human platelet count: day 14
Text: Non-obese diabetic/severe combined immunodeficiency (NOD/SCID) mice were characterized as an efficient engraftment model for human hematopoietic stem cells, as this model results in the production of human platelets. In this way, we examined the in vivo platelet-increasing effect of FORMULA X in human platelet-producing NOD/SCID mice in which human hematopoietic stem cells were transplanted.
In this study, we used commercially available cryopreserved human fetal liver CD34+ cells as a source of human hematopoietic stem cells. The cells were transplanted into sublethally irradiated (240 cGy) NOD/SCID mice. Human platelets started to appear in peripheral blood of these mice 4 weeks after transplantation. The production of human platelets continued up to six months post-transplant. […]

[6] = biological target: T2, human receptor (c-Mpl)-expressing Ba/F3 cells (Homo sapiens, UniProt P40238); experiment: proliferation of human c-Mpl-expressing Ba/F3 cells (c-Mpl-Ba/F3 cells); type: cell-based; settings: read-out: proliferation in a c-Mpl-dependent manner, EC50
T2 construct: expressed in transfected cells; host or cells: Ba/F3 cells
T2 sequence (P40238 26-635): T1 sequence (P40238 26-635)
Text: Thrombopoietin (TPO) is a 332 amino acid cytokine that is the principal physiologic regulator of platelet production. Using a high-throughput growth assay based on the proliferation of human receptor (c-Mpl)-expressing Ba/F3 cells (c-Mpl-Ba/F3 cells), the screening of a library led to the identification of a novel series of c-Mpl agonists.

Ba/F3 cell = Ba/F3 cell growth (c-Mpl dependence control); type: cell-based; settings: Ba/F3 cells without c-Mpl
chimpanzee platelets = experiment: activation of signaling pathways in platelets (anti-phospho-STAT5 immunoblot), chimpanzee; type: cell-based
[7] = system: Platelets of other species; experiment: signaling responses in platelets of other species (anti-phospho-STAT5 immunoblot); type: cell-based; settings: baboon, rhesus, cynomolgus, squirrel monkey, marmoset, beagle dog, guinea pig, rabbit, hamster, rat, mouse platelets
murine platelets = experiment: murine platelet count in human platelet-producing NOD/SCID mice; type: in vivo; settings: during the study period
Experimental: In this study, we used commercially available cryopreserved human fetal liver CD34+ cells as a source of human hematopoietic stem cells. The cells were transplanted into sublethally irradiated (240 cGy) NOD/SCID mice. Human platelets started to appear in peripheral blood of these mice 4 weeks after transplantation. The production of human platelets continued up to six months post-transplant. Various doses of FORMULA X (0, 0.3, and 3 mg/kg/day) were orally administered for 14 days to NOD/SCID mice that had been confirmed to produce human platelets stably.
The increase in the human platelet count reached about 2.7-fold at 1 mg/kg/day and about 3.0-fold at 3 mg/kg/day on day 14.

Compound	EC50 [1] [nM]	ploidy level of cells [2]	influence on rhTPO binding to human c-Mpl (human c-Mpl)	activation of signaling pathways in platelets (human platelets [3])	number of megakaryocytes (CD34-CD41+ cells) ([4]; agent alone (FIG. 1))	number of megakaryocytes (CD34-CD41+ cells) ([4]; in the presence of 3 nM TPO (FIG. 1))	increase in the human platelet count (human platelets [5]; 1 mg/kg/day oral)	increase in the human platelet count (human platelets [5]; 3 mg/kg/day oral)	human platelet count after withdrawal of administration (human platelets [5]; after withdrawal)	number of human platelets (human platelets [5]; oral administration for 14 days, significance at 1 mg/kg/day and above)	EC50 [6] [nM]	effect on Ba/F3 cell growth (Ba/F3 cell)	activation of signaling pathways in platelets (chimpanzee platelets)	signaling responses in platelets (anti-phospho-STAT5 immunoblot) [7]	number of murine platelets (murine platelets)
O=C(Nc1nc(-c2cc(Cl)cs2)c(N2CCN(C3CCCCC3)CC2)s1)c1cnc(N2CCC(C(=O)O)CC2)c(Cl)c1 [FORMULA X]	25	not different from that of cells treated with rhTPO	did not influence	occurred only in human and chimpanzee platelets	increased the number of megakaryocytes in a dose-dependent fashion	dose-dependently increased	about 2.7 fold	about 3.0 fold	return to the pretreatment level	dose-dependently increased	3.3	no effect	occurred only in human and chimpanzee platelets	no signaling responses	did not change
TPO: 332 amino acid cytokine that is the principal physiologic regulator of platelet production					increased the number of megakaryocytes in a dose-dependent fashion									showed signaling responses	
